Assay results from patent US20220256847A1, “CELL DEATH INHIBITOR AND CELL DEATH INHIBITION METHOD” (UNIVERSITY OF TSUKUBA, priority 2019, published 2022).

What was measured:
Type in all cases: in vivo
[1] = system: leaves of Nicotiana benthamiana; assay: Observation of gangrene (cell death induced by transient protein expression) in leaves after agroinfiltration and spraying of the substance
Experimental: Nicotiana benthamiana was grown for 5 to 6 weeks under conditions of 25° C. and 16 hours in light and 8 hours in the dark. Each of the above-described vectors was introduced into an Agrobacterium tumefaciens GV3101 strain having a binary vector, and it was cultured at 28° C. until the stationary phase in L broth medium supplemented with 20 μM acetosyringone, 50 mg/L kanamycin, 30 mg/L gentamicin, and 30 mg/L rifampicin at 10 mM MES (pH 5.6).
Then, the culture solution was centrifuged to recover the Agrobacterium tumefaciens, and then suspended such that OD600 was approximately 1 by using an infiltration buffer (10 mM magnesium chloride, 10 mM MES, (pH 5.6), and 100 μM acetosyringone). The Agrobacterium tumefaciens was then left in this liquid for 2 to 3 hours.
After this, the suspension of Agrobacterium tumefaciens was infiltrated on the underside of the leaves of Nicotiana benthamiana by using a 1 mL syringe without a needle. Alternatively, in some cases, Nicotiana benthamiana was immersed in the Agrobacterium suspension (agroinfiltration liquid), and vacuum infiltrated by leaving it under a pressure of 736 mmHg for 5 minutes, and then bringing the pressure back to atmospheric pressure.
In addition, in some experiments, sodium ascorbate was added to the infiltration buffer. Expression induction of heat shock protein was performed by incubating the plant for 1 hour at 37° C. one day and three days after the infiltration. In the following Example, sodium L-ascorbate was used as sodium ascorbate.
Agroinfiltration using a syringe was performed to express GFP, hCu1, hFbxw7, PLP-GFP, and Cryj1 in the leaves of Nicotiana benthamiana. In the expression of PLP-GFP, a 1/100 amount of pBYR2HS-EGFP was simultaneously agroinfitrated. Each plant was cultured at 18° C. for seven days after agroinfiltration. In addition, 0, 30, 50, 100, 200, and 300 mM aqueous solutions of sodium ascorbate were sprayed once every two days.
The scale bar indicates 1 cm. […] In (a) to (f), the region surrounded by the dotted circle is a region expressing GFP, hCu1, hFbxw7, PLP-GFP, and Cryj1, respectively.
Agroinfiltration using a syringe was performed to express each of GFP, hCu1, and hFbxw7 in the leaves of Nicotiana benthamiana. Each plant was cultured at 25° C. for seven days after agroinfiltration. In addition, a 0 or 200 mM aqueous solution of sodium ascorbate was sprayed once every two days. The present Example was mainly different from Example 1 in the growth temperatures of the plant.
The scale bar indicates 1 cm.
Each plant was cultured at 18° C. for seven days after agroinfiltration.
Specifically, Nicotiana benthamiana was immersed in the agroinfiltration liquid, and vacuum infiltrated by leaving it under a pressure of 736 mmHg for 5 minutes, and then bringing the pressure back to atmospheric pressure, and thus the hFbxw7 protein was expressed. Each plant was cultured at 20° C. for seven days after agroinfiltration. In addition, 1 mM of each endoplasmic reticulum stress inhibitor was sprayed one day and three days after agroinfiltration.

[2] = system: GFP protein expressed in the leaves of Nicotiana benthamiana; assay: GFP protein expression level, SDS-PAGE and CBB staining of soluble leaf protein
[3] = system: hCu1 protein expressed in the leaves of Nicotiana benthamiana; assay: hCu1 protein expression level, Western blotting with anti-FLAG antibody
Source text: (§1) The soluble protein was then extracted from the region where the hCu1 protein was expressed in the leaves of each plant. The prepared soluble protein was then subjected to SDS-PAGE and transferred to a PVDF membrane. As described above, a FLAG tag was attached to the N-terminus of the hCu1 protein. Here, the hCu1 protein was detected by Western blotting with an anti-FLAG antibody.
FIG. 4A is a photograph showing the results of Western blotting. In FIG. 4A, “NT” indicates the results of the leaves of Nicotiana benthamiana without gene introduction, and “FW” indicates fresh weight. In FIG. 4A, the band indicated by the arrowhead indicates the band of the hCu1 protein. FIG. 4B is a graph showing the results of quantifying the expression level of the hCu1 protein based on FIG. 4A. […]
as §1, with “the” for “the region where the hCu1 protein was expressed in the”, “plant seven days after agroinfiltration.” for “plant.”
FIG. 13A is a photograph showing the results of Western blotting, and also illustrates the results of CBB staining. In FIG. 13A, “NT” indicates the results of the leaves of Nicotiana benthamiana without gene introduction, and “FW” indicates fresh weight. In addition, “vacuum” indicates the result of performing the vacuum infiltration, and “spray” indicates the result of spraying an aqueous solution of sodium ascorbate without adding sodium ascorbate to the agroinfiltration liquid. In addition, the band indicated by the arrowhead indicates the band of the hCu1 protein. In addition, “RbcL” indicates the Rubisco large subunit.
FIG. 13B is a graph showing the results of quantifying the expression level of the hCu1 protein based on FIG. 13A. In FIG. 13B, “vacuum” and “spray” indicate the same meaning as those in FIG. 13A.

[4] = system: PLP-GFP protein expressed in the leaves of Nicotiana benthamiana; assay: PLP-GFP protein expression level, Western blotting with anti-GFP antibody; conditions: Example 1: spray, concentration of 100 mM or higher, once every two days; 18° C., seven days
Experimental: The soluble protein was then extracted from the region where the PLP-GFP protein was expressed in the leaves of each plant. The prepared soluble protein was then subjected to SDS-PAGE and transferred to a PVDF membrane. For comparison, 100 ng, 200 ng, and 300 ng of purified GFP proteins were also subjected to SDS-PAGE and transferred to a PVDF membrane. Then, the PLP-GFP protein was detected by Western blotting with an anti-GFP antibody. FIG. 5A is a photograph showing the results of Western blotting. In FIG. 5A, “NT” indicates the results of the leaves of Nicotiana benthamiana without gene introduction, and “FW” indicates fresh weight. In FIG. 5A, the band indicated by the arrowhead indicates the band of the PLP-GFP protein. In addition, the band near 30 kDa is the band of the GFP protein. FIG. 5B is a graph showing the results of quantifying an expression level of the PLP-GFP protein based on FIG. 5A.

[5] = system: hFbxw7 protein expressed in the leaves of Nicotiana benthamiana; assay: hFbxw7 protein expression, Western blotting with anti-FLAG antibody; conditions: Example 2: 200 mM spray; 25° C.; three days after agroinfiltration
Source text: The soluble protein was extracted from the region where the hFbxw7 protein was expressed in the leaves of each plant three days after agroinfiltration. The prepared soluble protein was then subjected to SDS-PAGE and transferred to a PVDF membrane. As described above, a FLAG tag was attached to the N-terminus of the hFbxw7 protein. Here, the hFbxw7 protein was detected by Western blotting with an anti-FLAG antibody. FIG. 9 is a photograph showing the results of Western blotting. FIG. 9 also illustrates the results of CBB staining. In FIG. 9, “NT” indicates the results of the leaves of Nicotiana benthamiana without gene introduction, and “FW” indicates fresh weight. In addition, “Mock” indicates the result of not spraying an aqueous solution of sodium ascorbate, and “AsA” indicates the result of spraying a 200 mM aqueous solution of sodium ascorbate. In addition, the band indicated by the arrowhead indicates the band of the hFbxw7 protein. In addition, “RbcL” indicates the Rubisco large subunit.

[6] = system: Cryj1 protein expressed in the leaves of Nicotiana benthamiana; assay: Cryj1 protein expression, Western blotting with anti-Cryj1 antibody; conditions: Example 8: 200 mM spray once every two days; vacuum infiltration; 24° C. or 20° C., seven days
Experimental: Nicotiana benthamiana was immersed in the agroinfiltration liquid, and vacuum infiltrated by leaving it under a pressure of 736 mmHg for 5 minutes, and then by bringing the pressure back to atmospheric pressure, and thus the Cryj1 protein was expressed. Each plant was cultured at 24° C. or 20° C. for seven days after agroinfiltration. In addition, a 0 mM or 200 mM aqueous solution of sodium ascorbate was sprayed once every two days.
The soluble protein was then extracted from the leaves of each plant seven days after agroinfiltration. The prepared soluble protein was then subjected to SDS-PAGE and transferred to a PVDF membrane. Then, the Cryj1 protein was detected by Western blotting with an anti-Cryj1 antibody.
FIG. 18A is a photograph showing the results of Western blotting. In FIG. 18B, “P” indicates the result of SDS-PAGE and Western blotting of the Cryj1 protein derived from a natural product as a positive control, “M” indicates a molecular weight marker, “WT” indicates the result of the leaves of Nicotiana benthamiana without gene introduction, “24° C.” indicates the result of culturing at 24° C., “20° C.” indicates the result of culturing at 20° C., and “+AsA” indicates the result of spraying a 200 mM aqueous solution of sodium ascorbate once every two days.

Nicotiana benthamiana = assay: Observation of gangrene after adding the substance to the agroinfiltration liquid (vacuum infiltration); conditions: hCu1, 25° C., seven days
Experimental: (§2) Sodium ascorbate was added to the agroinfiltration liquid to examine whether gangrene can be inhibited. Specifically, Nicotiana benthamiana was immersed in the agroinfiltration liquid, and vacuum infiltrated by leaving it under a pressure of 736 mmHg for 5 minutes, and then bringing the pressure back to atmospheric pressure, and thus the hCu1 protein was expressed. Here, sodium ascorbate having a final concentration of 80 mM, 100 mM, or 200 mM was added to the agroinfiltration liquid. Each plant was cultured at 25° C. for seven days after agroinfiltration.
In (a) to (c), “vacuum” indicates the results of vacuum infiltration.
as §2, with “0, 10, 20, 30,” for “80 mM, 100 mM,”, “40” for “200”, “liquid.” for “liquid. Each plant was cultured at 25° C. for seven days after agroinfiltration.”
Sodium ascorbate was administered only once at the time of agroinfiltration. […]

[7] = Example 1: spray, concentration of 100 mM or higher, once every two days, 18° C., seven days

O=C1O[C@H]([C@@H](O)CO)C([O-])=C1O.[Na+] [sodium ascorbate, sodium L-ascorbate]
gangrene (cell death induced by transient protein expression) ([1]; Example 1: sprayed with 100, 200 and 300 mM aqueous solutions once every two days, 18° C., seven days after agroinfiltration, hCu1, hFbxw7, PLP-GFP, Cryj1 regions): gangrene was inhibited | gangrene ([1]; Example 2: 200 mM spray once every two days, 25° C., seven days after agroinfiltration, GFP, hCu1, hFbxw7): tendency of gangrene suppression | gangrene in GFP-expressing leaves ([1]; Example 2: 200 mM spray, 25° C., culturing continued for seven days after agroinfiltration): tendency of gangrene reduction | expression level of the GFP protein [2, 7]: increase in expression level of the GFP protein | expression level of the Rubisco large subunit [2, 7]: increase in expression level of the Rubisco large subunit | GFP protein expression level ([2]; Example 2: 200 mM spray, 25° C., three, five and seven days after agroinfiltration): GFP protein expression level sustenance | expression level of the hCu1 protein [3, 7]: increase in expression level of the hCu1 protein | peak in the expression level of the hCu1 protein ([3]; Example 1: spray, concentration of 200 mM or higher, 18° C., seven days): peak in the expression level of the hCu1 protein was observed | expression of the hCu1 protein ([3]; Example 2: 200 mM spray, 25° C., seven days after agroinfiltration): expression of the hCu1 protein was maintained even seven days after agroinfiltration | expression level of the hCu1 protein, time of peak ([3]; Example 2: 200 mM spray, 25° C., three days after agroinfiltration): peak in the expression level of the hCu1 protein was observed three days after agroinfiltration | expression of the hCu1 protein ([3]; Example 4: final concentration of 40 mM added to the agroinfiltration liquid, once, vacuum infiltration, 25° C., seven days): expression of the hCu1 protein similar to a case where a 200 mM aqueous solution of sodium ascorbate was sprayed | expression level of the PLP-GFP protein [4]: increase in expression level of the PLP-GFP protein | expression of the hFbxw7 protein [5]: expression of the hFbxw7 protein was observed | expression of Cryj1 protein [6]: expression of Cryj1 protein was observed | gangrene induced by the substance (Nicotiana benthamiana; Example 3: concentration of 80 mM or higher (80, 100, 200 mM) added to the agroinfiltration liquid): gangrene possibly caused by osmotic stress was induced | gangrene of the plant (Nicotiana benthamiana; Example 4: added to the agroinfiltration liquid (0-40 mM), once): reduce gangrene of the plant

O=C([O-])CC(O)(CC(=O)[O-])C(=O)[O-].[Na+].[Na+].[Na+] [sodium citrate, reference compound]
cell death induced by transient protein expression ([1]; Example 5: spray 30-300 mM once every two days, 18° C., seven days): cannot inhibit cell death induced by transient protein expression | state of the leaves ([1]; Example 5: spray, concentration of 100 mM or higher, once every two days, 18° C., seven days): leaves were in a wilted state
